Active and inactive are the calls of the source. No cut-off for these calls is given here.
Key:
[1] = biological target: T1, Steroid hormone receptor ERR1 (Homo sapiens, UniProt P11474); assay: Binding affinity to GST-tagged ERRalpha LBD (unknown origin) using fluorescein PGC1alpha as coactivator incubated for 1 hr by LanthaScreen TR-FRET co-regulator assay
T1 sequence (P11474 whole entry): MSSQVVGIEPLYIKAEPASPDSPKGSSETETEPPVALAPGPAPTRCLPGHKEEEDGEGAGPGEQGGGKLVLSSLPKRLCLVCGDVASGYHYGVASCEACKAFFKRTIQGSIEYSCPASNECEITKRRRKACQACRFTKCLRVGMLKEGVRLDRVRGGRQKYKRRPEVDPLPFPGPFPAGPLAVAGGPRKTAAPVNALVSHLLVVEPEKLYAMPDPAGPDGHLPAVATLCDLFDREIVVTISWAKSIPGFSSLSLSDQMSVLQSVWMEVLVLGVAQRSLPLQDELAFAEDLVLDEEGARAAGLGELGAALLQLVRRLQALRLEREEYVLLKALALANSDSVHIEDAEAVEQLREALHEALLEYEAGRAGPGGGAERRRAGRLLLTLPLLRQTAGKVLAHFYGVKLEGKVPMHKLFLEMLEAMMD

[2] = Metabolic stability in human liver microsome assessed as parent compound remaining at 1 uM incubated for 30 mins in presence of NADPH generating system by LC-MS/MS analysis; format: ADME; conditions: liver microsomes, read-out: Stabilty
[3] = biological target: T2, CYP1A2 (Homo sapiens, UniProt P05177); assay: Inhibition of CYP1A2 in human liver microsomes assessed as reduction in phenacetin O-deethylase activity at 10 uM preincubated for 5 mins followed by addition of NADPH-regenerating system and measured after 15 mins by LC-MS/MS analysis relative to control; format: ADME; conditions: probe phenacetin (O-deethylase activity), time 20 min
T2 sequence (P05177 whole entry): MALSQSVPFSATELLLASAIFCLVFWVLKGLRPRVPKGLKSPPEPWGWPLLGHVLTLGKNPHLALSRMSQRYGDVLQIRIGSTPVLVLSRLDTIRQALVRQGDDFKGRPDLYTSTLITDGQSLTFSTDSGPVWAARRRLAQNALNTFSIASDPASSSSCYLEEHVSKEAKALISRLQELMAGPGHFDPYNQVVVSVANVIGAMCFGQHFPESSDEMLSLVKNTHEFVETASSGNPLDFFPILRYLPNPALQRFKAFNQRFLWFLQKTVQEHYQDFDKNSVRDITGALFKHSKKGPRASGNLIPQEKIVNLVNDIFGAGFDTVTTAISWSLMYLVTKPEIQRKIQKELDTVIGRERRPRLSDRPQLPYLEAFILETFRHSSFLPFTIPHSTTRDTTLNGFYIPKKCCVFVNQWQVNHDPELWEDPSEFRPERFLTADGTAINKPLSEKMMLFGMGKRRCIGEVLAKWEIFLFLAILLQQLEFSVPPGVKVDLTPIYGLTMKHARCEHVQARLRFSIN

[4] = Effective permeability of compound at 10 uM in PBS buffer at pH 7.4 after 5 hrs by LC-MS/MS analysis based PAMPA method; format: ADME; conditions: read-out: Peff
[5] = biological target: CYP2D6 (Homo sapiens, UniProt P10635); assay: Inhibition of CYP2D6 in human liver microsomes assessed as reduction in dextromethorphan O-demethylase activity at 10 uM preincubated for 5 mins followed by addition of NADPH-regenerating system and measured after 15 mins by LC-MS/MS analysis relative to control; format: ADME; conditions: probe dextromethorphan (O-demethylase activity), time 20 min
CYP2D6, sequence (P10635 whole entry): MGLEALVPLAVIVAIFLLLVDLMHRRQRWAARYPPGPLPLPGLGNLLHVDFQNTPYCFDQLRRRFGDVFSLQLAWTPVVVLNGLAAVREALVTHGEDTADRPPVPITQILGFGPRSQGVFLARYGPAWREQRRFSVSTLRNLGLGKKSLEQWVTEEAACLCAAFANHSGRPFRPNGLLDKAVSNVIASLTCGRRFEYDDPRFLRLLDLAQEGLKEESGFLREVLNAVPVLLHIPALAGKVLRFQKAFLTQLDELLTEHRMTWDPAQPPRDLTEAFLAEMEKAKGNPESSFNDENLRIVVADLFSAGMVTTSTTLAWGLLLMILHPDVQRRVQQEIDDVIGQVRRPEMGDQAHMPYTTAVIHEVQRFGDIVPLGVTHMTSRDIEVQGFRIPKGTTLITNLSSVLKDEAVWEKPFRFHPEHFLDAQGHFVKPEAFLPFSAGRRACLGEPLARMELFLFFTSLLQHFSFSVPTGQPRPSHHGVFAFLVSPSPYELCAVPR

[6] = biological target: CYP2C9 (Homo sapiens, UniProt P11712); assay: Inhibition of CYP2C9 in human liver microsomes assessed as reduction in tolbutamide 4-hydroxylase activity at 10 uM preincubated for 5 mins followed by addition of NADPH-regenerating system and measured after 15 mins by LC-MS/MS analysis relative to control; format: ADME; conditions: probe tolbutamide (4-hydroxylase activity), time 20 min
CYP2C9, sequence (P11712 whole entry, the tested form may be a part): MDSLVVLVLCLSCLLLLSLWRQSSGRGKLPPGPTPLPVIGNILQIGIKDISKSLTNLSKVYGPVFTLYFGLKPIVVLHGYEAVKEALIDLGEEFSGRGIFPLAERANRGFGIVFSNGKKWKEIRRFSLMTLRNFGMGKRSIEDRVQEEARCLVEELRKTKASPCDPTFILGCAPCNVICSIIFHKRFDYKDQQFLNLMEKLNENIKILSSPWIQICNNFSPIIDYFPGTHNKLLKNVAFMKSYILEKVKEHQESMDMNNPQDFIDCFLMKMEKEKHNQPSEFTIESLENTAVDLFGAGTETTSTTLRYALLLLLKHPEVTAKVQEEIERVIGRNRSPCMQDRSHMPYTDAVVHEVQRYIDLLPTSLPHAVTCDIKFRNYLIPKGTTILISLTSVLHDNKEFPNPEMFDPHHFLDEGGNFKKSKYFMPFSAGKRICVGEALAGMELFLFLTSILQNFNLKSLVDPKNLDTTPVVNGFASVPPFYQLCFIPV

[7] = biological target: T3, Estrogen receptor (Homo sapiens, UniProt P03372); assay: Binding affinity to GST-tagged ERalpha LBD (unknown origin) using fluorescein PGC1alpha as coactivator incubated for 1 hr by LanthaScreen TR-FRET co-regulator assay
T3 sequence (P03372 whole entry): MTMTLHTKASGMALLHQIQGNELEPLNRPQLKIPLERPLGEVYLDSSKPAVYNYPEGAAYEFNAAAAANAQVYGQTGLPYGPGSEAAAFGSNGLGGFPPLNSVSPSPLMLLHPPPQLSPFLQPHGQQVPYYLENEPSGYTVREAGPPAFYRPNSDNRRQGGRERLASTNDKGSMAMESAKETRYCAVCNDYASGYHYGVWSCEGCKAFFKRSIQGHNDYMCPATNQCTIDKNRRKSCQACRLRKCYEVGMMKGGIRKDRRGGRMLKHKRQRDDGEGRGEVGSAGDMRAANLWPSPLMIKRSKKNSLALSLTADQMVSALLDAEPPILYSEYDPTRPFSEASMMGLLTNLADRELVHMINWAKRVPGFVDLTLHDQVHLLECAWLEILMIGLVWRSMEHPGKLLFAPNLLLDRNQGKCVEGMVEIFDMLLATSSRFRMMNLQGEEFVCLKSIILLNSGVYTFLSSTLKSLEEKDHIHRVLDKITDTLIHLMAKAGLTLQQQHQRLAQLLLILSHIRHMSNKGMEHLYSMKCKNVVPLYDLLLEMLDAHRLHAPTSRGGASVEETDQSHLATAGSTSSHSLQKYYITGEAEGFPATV

[8] = biological target: hERG (KCNH2) (Homo sapiens, UniProt Q12809); assay: (§1) Inhibition of human ERG measured after 4 hrs by fluorescence polarization assay; conditions: human
hERG (KCNH2), sequence (Q12809 whole entry): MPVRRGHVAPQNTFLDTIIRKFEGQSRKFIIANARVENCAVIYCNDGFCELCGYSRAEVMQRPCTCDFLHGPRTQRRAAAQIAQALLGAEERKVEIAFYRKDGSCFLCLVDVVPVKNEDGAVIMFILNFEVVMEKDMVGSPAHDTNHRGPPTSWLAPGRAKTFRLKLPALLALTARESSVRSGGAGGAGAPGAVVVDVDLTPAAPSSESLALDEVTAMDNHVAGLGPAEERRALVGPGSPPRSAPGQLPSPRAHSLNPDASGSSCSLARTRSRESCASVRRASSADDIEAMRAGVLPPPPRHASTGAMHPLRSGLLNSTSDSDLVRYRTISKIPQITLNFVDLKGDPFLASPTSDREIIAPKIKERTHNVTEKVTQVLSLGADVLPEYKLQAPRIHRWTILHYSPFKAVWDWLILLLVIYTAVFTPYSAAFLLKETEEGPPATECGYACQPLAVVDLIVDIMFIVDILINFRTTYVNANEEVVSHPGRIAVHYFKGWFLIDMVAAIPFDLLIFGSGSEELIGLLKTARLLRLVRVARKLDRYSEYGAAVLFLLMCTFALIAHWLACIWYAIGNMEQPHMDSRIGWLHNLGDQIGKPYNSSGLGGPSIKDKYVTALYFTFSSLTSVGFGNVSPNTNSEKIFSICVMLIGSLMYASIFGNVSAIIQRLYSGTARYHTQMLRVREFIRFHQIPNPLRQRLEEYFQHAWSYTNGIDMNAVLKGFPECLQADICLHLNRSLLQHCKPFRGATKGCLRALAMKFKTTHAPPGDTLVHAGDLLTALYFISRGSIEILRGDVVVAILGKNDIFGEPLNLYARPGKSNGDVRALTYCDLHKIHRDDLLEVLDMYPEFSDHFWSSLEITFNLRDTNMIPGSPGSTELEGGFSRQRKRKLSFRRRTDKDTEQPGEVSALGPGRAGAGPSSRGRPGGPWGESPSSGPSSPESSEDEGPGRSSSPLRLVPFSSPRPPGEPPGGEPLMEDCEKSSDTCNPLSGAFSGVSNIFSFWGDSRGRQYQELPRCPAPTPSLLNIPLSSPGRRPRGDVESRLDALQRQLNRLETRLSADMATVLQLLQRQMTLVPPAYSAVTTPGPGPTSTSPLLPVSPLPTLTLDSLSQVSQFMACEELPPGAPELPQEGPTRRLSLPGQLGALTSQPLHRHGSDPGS

[9] = biological target: CYP2C19 (Homo sapiens, UniProt P33261); assay: Inhibition of CYP2C19 in human liver microsomes assessed as reduction in S-mephenytoin 4-hydroxylase activity at 10 uM preincubated for 5 mins followed by addition of NADPH-regenerating system and measured after 15 mins by LC-MS/MS analysis relative to control; format: ADME; conditions: probe S-mephenytoin (4-hydroxylase activity), time 20 min
CYP2C19, sequence (P33261 whole entry, the tested form may be a part): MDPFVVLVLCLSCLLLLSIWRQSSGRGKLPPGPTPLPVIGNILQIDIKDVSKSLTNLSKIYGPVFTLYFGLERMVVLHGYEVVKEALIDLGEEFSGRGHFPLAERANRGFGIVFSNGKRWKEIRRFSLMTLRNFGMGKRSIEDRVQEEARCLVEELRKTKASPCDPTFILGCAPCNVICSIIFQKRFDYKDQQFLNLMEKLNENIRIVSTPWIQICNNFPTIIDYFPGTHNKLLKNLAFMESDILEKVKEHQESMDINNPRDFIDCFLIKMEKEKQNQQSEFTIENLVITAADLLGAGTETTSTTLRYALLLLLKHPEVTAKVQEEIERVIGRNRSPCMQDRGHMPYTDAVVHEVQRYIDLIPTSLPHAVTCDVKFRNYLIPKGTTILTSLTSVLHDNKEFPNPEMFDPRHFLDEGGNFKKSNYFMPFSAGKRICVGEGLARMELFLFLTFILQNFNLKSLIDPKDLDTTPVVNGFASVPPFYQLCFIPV

[10] = biological target: T4, Steroid hormone receptor ERR2 (Homo sapiens, UniProt O95718); assay: Binding affinity to GST-tagged ERRbeta LBD (unknown origin) using fluorescein PGC1alpha as coactivator incubated for 1 hr by LanthaScreen TR-FRET co-regulator assay
T4 sequence (O95718 whole entry): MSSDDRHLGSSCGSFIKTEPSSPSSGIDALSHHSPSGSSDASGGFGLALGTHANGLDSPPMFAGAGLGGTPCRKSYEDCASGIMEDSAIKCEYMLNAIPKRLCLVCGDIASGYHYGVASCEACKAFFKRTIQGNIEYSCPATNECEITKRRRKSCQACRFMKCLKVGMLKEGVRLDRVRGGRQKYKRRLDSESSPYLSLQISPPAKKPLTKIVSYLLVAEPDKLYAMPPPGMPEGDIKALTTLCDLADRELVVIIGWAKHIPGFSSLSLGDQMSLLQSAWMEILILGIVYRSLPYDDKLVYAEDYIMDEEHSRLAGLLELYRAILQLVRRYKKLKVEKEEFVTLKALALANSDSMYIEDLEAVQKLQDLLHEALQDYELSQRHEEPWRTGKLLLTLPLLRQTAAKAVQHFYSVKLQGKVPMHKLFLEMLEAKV

[11] = biological target: CYP3A4 (Homo sapiens, UniProt P08684); assay: Inhibition of CYP3A4 in human liver microsomes assessed as reduction in midazolam 1-hydroxylase activity at 10 uM preincubated for 5 mins followed by addition of NADPH-regenerating system and measured after 15 mins by LC-MS/MS analysis relative to control; format: ADME; conditions: probe midazolam (1-hydroxylase activity), time 20 min
CYP3A4, sequence (P08684 whole entry): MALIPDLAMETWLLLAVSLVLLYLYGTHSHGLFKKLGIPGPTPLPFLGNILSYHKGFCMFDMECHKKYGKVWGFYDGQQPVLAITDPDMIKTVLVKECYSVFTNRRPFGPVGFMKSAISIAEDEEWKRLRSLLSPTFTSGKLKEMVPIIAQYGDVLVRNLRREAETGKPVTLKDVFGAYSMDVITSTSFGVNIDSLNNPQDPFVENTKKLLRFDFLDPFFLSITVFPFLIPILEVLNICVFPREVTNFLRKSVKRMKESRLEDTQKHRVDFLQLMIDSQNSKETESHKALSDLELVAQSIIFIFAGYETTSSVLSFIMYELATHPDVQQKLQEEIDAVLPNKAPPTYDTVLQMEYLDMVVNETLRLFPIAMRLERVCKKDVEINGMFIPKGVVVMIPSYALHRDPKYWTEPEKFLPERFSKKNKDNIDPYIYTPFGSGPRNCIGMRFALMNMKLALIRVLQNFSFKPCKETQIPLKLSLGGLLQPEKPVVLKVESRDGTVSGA

[12] = Metabolic stability in rat liver microsome assessed as parent compound remaining at 1 uM incubated for 30 mins in presence of NADPH generating system by LC-MS/MS analysis; format: ADME; conditions: liver microsomes, read-out: Stabilty
[13] = Clearance in Sprague-Dawley rat at 10 mg/kg, po or 1 mg/kg, iv measured upto 8 hrs by LC-MS/MS analysis; format: ADME, organism-based; conditions: in vivo
[14] = Half-life in Sprague-Dawley rat at 10 mg/kg, po or 1 mg/kg, iv measured upto 8 hrs by LC-MS/MS analysis; format: ADME, organism-based; conditions: in vivo
[15] = Oral bioavailability in Sprague-Dawley rat at 10 mg/kg, administered via gavage measured upto 8 hrs by LC-MS/MS analysis; format: ADME, organism-based; conditions: in vivo
[16] = Volume of distribution at steady state in Sprague-Dawley rat at 10 mg/kg, po or 1 mg/kg, iv measured upto 8 hrs by LC-MS/MS analysis; format: ADME, organism-based; conditions: in vivo, read-out: Vdss
[17] = tested on: CAL-62; assay: Antiproliferative activity against human CAL-62 cells at 10 uM assessed as reduction in cell proliferation; format: functional, cell-based
[18] = biological target: Voltage-gated inwardly rectifying potassium channel KCNH2 (Homo sapiens, UniProt Q12809); assay: as §1
Voltage-gated inwardly rectifying potassium channel KCNH2, sequence (Q12809 whole entry): as the sequence (Q12809 whole entry) above

[19] = tested on: CAL-62; assay: Antiproliferative activity against human CAL-62 cells at 20 uM assessed as reduction in cell proliferation; format: functional, cell-based

With `CN1CCC[C@@H]1COc1ccc(/C(=C(/CCCO)c2ccccc2)c2ccc(O)cc2)cc1.Cl` the IC50 [1] was greater than 10 µM, the remaining at 0.5 h, 1 µM [2] was 29% and the inhibition at 0.25 h, 10 µM [3] was 1.9%. It also gave a Papp at 5 h, 10 µM [4] of 0.7 ×10⁻⁶ cm/s, an inhibition at 0.25 h, 10 µM [5] of 6.4% and an inhibition at 0.25 h, 10 µM [6] of 13.3%. It also gave an IC50 [7] of 3.76 µM, an IC50 at 4 h [8] greater than 30 µM and an inhibition at 0.25 h, 10 µM [9] of 17.4%. It also gave an IC50 [10] greater than 10 µM, an inhibition at 0.25 h, 10 µM [11] of 20.6% and a remaining at 0.5 h, 1 µM [12] of 27.7%.
For `CN(C)CCOc1ccc(/C(=C(/CCCO)c2ccccc2)c2ccc(O)cc2)cc1`, the inhibition at 0.25 h, 10 µM [3] was 16.4%, the Papp at 5 h, 10 µM [4] was 0.23 ×10⁻⁶ cm/s and the inhibition at 0.25 h, 10 µM [5] was 17.7%. It also gave an inhibition at 0.25 h, 10 µM [6] of 27.1%, an inhibition at 0.25 h, 10 µM [9] of 21.8% and an inhibition at 0.25 h, 10 µM [11] of 17%. For the same compound, the clearance [13] was 45.6 mL/min/kg.
For `CN1CCC[C@H]1COc1ccc(/C(=C(/CCCO)c2ccccc2)c2ccc(Br)cc2)cc1.Cl`, the remaining at 0.5 h, 1 µM [2] was 61.2%, the inhibition at 0.25 h, 10 µM [3] was 9.6% and the half-life [14] was 3.4 h. It also gave a bioavailability [15] of 38.2%, a Vd [16] of 16.1 L/kg and a Papp at 5 h, 10 µM [4] of 0.93 ×10⁻⁶ cm/s. For the same compound, the inhibition at 0.25 h, 10 µM [5] was 35.6%, the inhibition at 0.25 h, 10 µM [6] was 37.3% and the Activity [17] was “inactive”. The IC50 [18] was 4.7 µM, the inhibition at 0.25 h, 10 µM [9] was 30.5% and the Activity [19] was “Active”. For the same compound, the inhibition at 0.25 h, 10 µM [11] was 55%, the clearance [13] was 74.4 mL/min/kg and the remaining at 0.5 h, 1 µM [12] was 66.2%.

— ChEMBL document CHEMBL4680094, “Insights of a Lead Optimization Study and Biological Evaluation of Novel 4-Hydroxytamoxifen Analogs as Estrogen-Related Receptor γ (ERRγ) Inverse Agonists” (J Med Chem, 2016)
